Test [1] concerns the target T1, PDK1 (Homo sapiens, UniProt O15530).
T1 construct: His6 (N)
T1 sequence (O15530 51-556 limits assumed): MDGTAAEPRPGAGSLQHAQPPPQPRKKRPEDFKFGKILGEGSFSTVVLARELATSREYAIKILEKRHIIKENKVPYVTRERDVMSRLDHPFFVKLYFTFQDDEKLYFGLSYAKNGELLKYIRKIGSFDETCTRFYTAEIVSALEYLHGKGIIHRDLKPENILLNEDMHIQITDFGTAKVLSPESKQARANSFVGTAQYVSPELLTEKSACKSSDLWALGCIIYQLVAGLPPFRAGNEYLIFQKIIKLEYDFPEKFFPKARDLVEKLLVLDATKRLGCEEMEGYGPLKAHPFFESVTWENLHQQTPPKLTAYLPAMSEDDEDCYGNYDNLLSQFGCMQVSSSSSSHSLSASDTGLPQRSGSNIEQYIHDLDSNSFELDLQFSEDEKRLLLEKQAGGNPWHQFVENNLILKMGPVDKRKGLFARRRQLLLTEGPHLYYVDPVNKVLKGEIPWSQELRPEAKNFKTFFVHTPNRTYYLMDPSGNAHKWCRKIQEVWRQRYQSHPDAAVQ
In words: Test for the inhibition of PDK1 (flashplate, 33P-ATP). Format: biochemical. Particulars: enzyme. On the procedure:
The experimental batches are carried out in a flashplate system with 384 wells/microtitration plate.
In each case, the PDK1 sample His6-PDK1(1-50)(3.4 nM), the PDK1 substrate biotin-bA-bA-[…] (400 nM), 4 μM ATP (with 0.2 μCi of ^33P-ATP/well) and the test substance in 50 μl of conventional experimental solution per well are incubated at 30° C. for 60 min. The test substances are employed in corresponding concentrations (if desired in a dilution series). The control is carried out without test substance. The reaction is stopped using standard methods and washed. The activity of the kinase is measured via the incorporated radioactivity in top count. In order to determine the non-specific kinase reaction (blank value), the experimental batches are carried out in the presence of 100 nM staurosporin.
The radioactivity (decompositions per minute) of the blank value (no use of test substance in the presence of staurosporin) is subtracted from all other radioactivity values. The controls (kinase activity without test substance) are set equal to 100 percent and all other radioactivity values (after subtracting the blank value) are expressed set in relation thereto (for example in % of the control).
IC50 values (50% inhibition) are determined with the aid of statistics programmes, such as, for example, RS1.

The target in test [2] is T2, PDK1 (Homo sapiens, UniProt O15530).
T2 construct: endogenous in cells; host or cells: commercially available colon carcinoma, ovary, prostate or breast cell lines (none named)
T2 sequence (O15530 1-556): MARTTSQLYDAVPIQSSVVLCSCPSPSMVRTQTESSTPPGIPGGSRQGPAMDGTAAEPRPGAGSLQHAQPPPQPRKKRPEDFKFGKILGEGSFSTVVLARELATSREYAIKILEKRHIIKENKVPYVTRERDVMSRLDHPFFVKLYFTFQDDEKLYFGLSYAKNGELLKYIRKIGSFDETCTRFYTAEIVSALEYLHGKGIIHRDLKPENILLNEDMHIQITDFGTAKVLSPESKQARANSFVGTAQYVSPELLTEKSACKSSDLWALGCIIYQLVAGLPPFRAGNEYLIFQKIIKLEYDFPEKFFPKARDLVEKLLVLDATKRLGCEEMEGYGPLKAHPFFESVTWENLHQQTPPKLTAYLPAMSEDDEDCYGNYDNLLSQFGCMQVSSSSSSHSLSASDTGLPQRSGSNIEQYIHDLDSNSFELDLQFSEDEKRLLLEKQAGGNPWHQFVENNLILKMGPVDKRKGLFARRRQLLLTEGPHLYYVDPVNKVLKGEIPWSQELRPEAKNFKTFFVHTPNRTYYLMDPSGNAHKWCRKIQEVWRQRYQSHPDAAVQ
In words: IC50 PDK1 (cell). Format: cell-based. On the procedure:
The cells are sown in a suitable cell density in microtitre plates (96-well format) and the test substances are added in the form of a concentration series. After four further days of cultivation in serum-containing medium, the tumour cell proliferation/tumour cell vitality can be determined by means of an Alamar Blue test system. A defined number of cells (for example 2000 cells) per culture/well in a volume of 180 μl of culture medium are sown in microtitre plates (96 well cell-culture plates) using a multichannel pipette. The cells are subsequently cultivated in a CO2 incubator (37° C. and 10% CO2). The test substances are dissolved, for example, in DMSO and subsequently employed in corresponding concentration (if desired in a dilution series) in the cell culture medium. The dilution steps can be adapted depending on the efficiency of the active ingredients and the desired spread of the concentrations. Cell culture medium is added to the test substances in corresponding concentrations. The addition of the test substances to the cells can take place on the same day as the sowing of the cells. To this end, in each case 20 μl of substance solution from the predilution plate are added to the cultures/wells. The cells are cultivated for a further 4 days at 37° Celsius and 10% CO2. In each case, 20 μl of Alamar Blue reagent are added per well, and the microtitre plates are incubated, for example, for a further seven hours in a CO2 incubator (at 37° C. and 10% CO2). The plates are measured in a reader with a fluorescence filter at a wavelength of 540 nm. The plates can be shaken gently immediately before the measurement. The absorbance value of the medium control (no cells and test substances used) is subtracted from all other absorbance values. The controls (cells without test substance) are set equal to 100 percent, and all other absorbance values are set in relation thereto (for example in % of control): Calculation: 100*(value with cells and test substance−value of medium control)/(value with cells−value of medium control) IC50 values (50% inhibition) are determined with the aid of statistics programs, such as, for example, RS1.

A further test addresses T3, IRAK-1 (Homo sapiens, UniProt P51617).
T3 construct: His6 (N); Dr.Jaekel Pool B, 232Y08C1.IRK
In words: Test for the inhibition of IRAK1 (autophosphorylation, flashplate). It is filed as biochemical. Particulars: enzyme. On the procedure:
(§1) The experimental batches are carried out in a flashplate system with 384 wells/microtitre plate. In each case, in order to investigate the inhibition of the autophosphorylation activity of IRAK1, the IRAK1 sample His6-IRAK1 (5.1 nM), 1 μM ATP (with 0.25 μCi of ^33P-ATP/well) and the test substance in 50 μl of conventional experimental solution per well are incubated at 22° C. for 180 min. The test substances are employed in corresponding concentrations (if desired in a dilution series). The control is carried out without test substance. The reaction is stopped using standard methods and washed. The activity of the kinase is measured via the incorporated radioactivity in top count. In order to determine the non-specific kinase reaction (blank value), the experimental batches are carried out in the presence of 1 μM staurosporin. The radioactivity (decompositions per minute) of the blank value (no use of test substance in the presence of 1 μM staurosporin) is subtracted from all other radioactivity values. The controls (kinase activity without test substance) are set equal to 100 percent and all other radioactivity values (after subtracting the blank value) are expressed set in relation thereto (for example in % of the control). IC50 values (50% inhibition) are determined with the aid of statistics programs, such as, for example, RS1.

The next test addresses T4, IRAK-4 (Homo sapiens, UniProt Q9NWZ3).
T4 construct: His6 (N); Dr.Jaekel
T4 sequence (Q9NWZ3 1-460): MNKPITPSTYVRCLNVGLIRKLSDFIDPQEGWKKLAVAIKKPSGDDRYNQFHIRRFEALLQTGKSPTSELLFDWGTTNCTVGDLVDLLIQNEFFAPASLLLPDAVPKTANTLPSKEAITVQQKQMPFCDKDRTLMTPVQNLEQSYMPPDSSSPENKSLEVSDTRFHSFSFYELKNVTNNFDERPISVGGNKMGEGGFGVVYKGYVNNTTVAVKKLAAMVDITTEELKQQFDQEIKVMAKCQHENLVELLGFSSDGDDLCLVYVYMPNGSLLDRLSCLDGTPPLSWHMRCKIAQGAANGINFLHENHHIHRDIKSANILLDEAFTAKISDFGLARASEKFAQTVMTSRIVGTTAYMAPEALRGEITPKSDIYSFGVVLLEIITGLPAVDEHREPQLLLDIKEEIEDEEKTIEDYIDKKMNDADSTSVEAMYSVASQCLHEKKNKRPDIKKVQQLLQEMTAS
In words: Test for the inhibition of IRAK4 (flashplate, 33P-ATP). Format: biochemical. Particulars: enzyme. Here is the method:
as §1, with “case,” for “case, in order to investigate”, “the IRAK4 sample His6-IRAK4 (7.3 nM),” for “the inhibition of”, “the biotinylated substrate peptide STK substrate 1-biotin (Cisbio Bioassays, France) (300” for “the autophosphorylation activity of IRAK1, the IRAK1 sample His6-IRAK1 (5.1”, “nM), 10” for “nM), 1”

Molecules are shown by their SMILES.

In general, IC50 refers to the point on the concentration scale where inhibition reaches its midpoint. The low end stands for greater potency, the high end for weaker potency.

T3 sequence (P51617 whole entry, species assumed): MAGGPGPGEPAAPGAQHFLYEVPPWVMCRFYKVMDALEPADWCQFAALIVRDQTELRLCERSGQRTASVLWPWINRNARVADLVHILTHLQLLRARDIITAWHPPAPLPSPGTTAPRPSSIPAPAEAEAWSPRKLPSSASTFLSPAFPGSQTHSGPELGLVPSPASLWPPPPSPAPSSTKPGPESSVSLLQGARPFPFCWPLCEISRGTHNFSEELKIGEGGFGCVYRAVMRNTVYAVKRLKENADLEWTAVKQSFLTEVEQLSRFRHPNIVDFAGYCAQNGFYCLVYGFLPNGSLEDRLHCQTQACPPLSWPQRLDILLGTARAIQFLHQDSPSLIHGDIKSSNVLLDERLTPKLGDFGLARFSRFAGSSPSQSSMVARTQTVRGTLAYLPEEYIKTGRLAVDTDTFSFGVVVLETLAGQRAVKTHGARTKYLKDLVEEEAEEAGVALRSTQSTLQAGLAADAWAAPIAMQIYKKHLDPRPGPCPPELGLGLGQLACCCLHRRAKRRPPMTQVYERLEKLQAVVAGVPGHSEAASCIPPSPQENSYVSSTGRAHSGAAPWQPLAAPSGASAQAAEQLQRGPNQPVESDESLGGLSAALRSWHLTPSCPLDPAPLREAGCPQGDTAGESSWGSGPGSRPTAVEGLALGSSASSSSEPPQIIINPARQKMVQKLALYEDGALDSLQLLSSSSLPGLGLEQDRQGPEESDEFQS

Turning to `C[C@@H]1CC(=O)NN=C1c1ccc2nc(-c3cc(-c4cnn(C)c4)cnc3N)[nH]c2c1` (single isomer, unassigned) [Compound A2], the IC50 at PDK1 [1] was 0.001 to 0.1 µM; at PDK1 [2], 0.1 to 10 µM.

Turning to `C[C@H]1CC(=O)NN=C1c1ccc2nc(-c3cc(-c4cnn(C)c4)cnc3N)[nH]c2c1` (single isomer, unassigned) [Compound A3], the IC50 at PDK1 [1] was 0.001 to 0.1 µM; against PDK1 [2] it was more than 10 µM.

Regarding `CCC1CC(=O)NN=C1c1ccc2[nH]c(-c3cc(-c4cnn(C)c4)cnc3N)nc2c1` (stereo not shown) [Compound A4, 6-{2-[2-Amino-5-(1-methyl-1H-pyrazol-4-yl)-pyridin-3-yl]-1H-benzimidazol-5-yl}-5-ethyl-4,5-dihydro-2H-pyridazin-3-one], the figures for the IC50 against PDK1 [1] and on PDK1 [2] were 0.001 to 0.1 µM and 0.1 to 10 µM, respectively.

As for `CC1CC(=O)NN=C1c1ccc2[nH]c(-c3cc(-c4cnn(CCN5CCOCC5)c4)cnc3N)nc2c1` (stereo not shown) [Compound A9, 6-(2-{2-amino-5-[1-(2-morpholin-4-ylethyl)-1H-pyrazol-4-yl]-pyridin-3-yl}-1H-benzimidazol-5-yl)-5-methyl-4,5-dihydro-2H-pyridazin-3-one], the IC50 lay within 0.001 to 0.1 µM at PDK1 [1] and 0.1 to 10 µM at PDK1 [2].

With `COc1cc2[nH]c(-c3cc(-c4cnn(C5CCNCC5)c4)cnc3N)nc2cc1F` [Compound A69], the IC50 at PDK1 [1], against IRAK-1 and against IRAK-4 was 0.001 to 0.1 µM each time.

Turning to `Cn1cc(-c2cnc(N)c(-c3nc4ccc(F)cc4[nH]3)c2)cn1` [Compound A74], the IC50 is 0.001 to 0.1 µM at PDK1 [1], 0.1 to 10 µM on IRAK-1 and 0.1 to 10 µM on IRAK-4.

Take `COc1cc2nc(-c3cc(-c4cnn(C)c4)cnc3N)[nH]c2cc1F` [Compound A78]: the IC50 against PDK1 [1] fell in the range of 0.001 to 0.1 µM; at IRAK-1 it was 0.001 to 0.1 µM; against IRAK-4, 0.1 to 10 µM.

With `Cc1cccc2nc(-c3cc(-c4cnn(C5CCNCC5)c4)cnc3N)[nH]c12` [Compound A89, 3-(7-Methyl-1H-benzimidazol-2-yl)-5-(1-piperidin-4-yl-1H-pyrazol-4-yl)pyridin-2-ylamine], the IC50 lay within 0.001 to 0.1 µM at PDK1 [1], 0.1 to 10 µM against IRAK-1 and 0.1 to 10 µM against IRAK-4.

For `COc1ccc2nc(-c3cc(-c4cnn(Cc5cccs5)c4)cnc3N)[nH]c2c1` [Compound A113, 3-(6-Methoxy-1H-benzimidazol-2-yl)-5-(1-thiophen-2-ylmethyl-1H-pyrazol-4-yl)pyridin-2-ylamine], the IC50 at IRAK-1 fell in the range of 0.001 to 0.1 µM; at IRAK-4 it was 0.1 to 10 µM.

With `Nc1ncc(-c2cnn(C3CCNCC3)c2)cc1-c1nc2ccccc2[nH]1` [Compound A114, 3-(1H-Benzimidazol-2-yl)-5-(1-piperidin-4-yl-1H-pyrazol-4-yl)pyridin-2-ylamine], the figures for the IC50 against IRAK-1 and at IRAK-4 were 0.1 to 10 µM and 0.001 to 0.1 µM, respectively.

For the compound `Cn1cc(-c2cnc(N)c(-c3nc4cc5cn[nH]c5cc4[nH]3)c2)cn1` [Compound A115, 3-(1,7-Dihydroimidazo[4,5-f]indazol-6-yl)-5-(1-methyl-1H-pyrazol-4-yl)pyridin-2-ylamine], the concentration for half-maximal inhibition (IC50) at IRAK-1 and against IRAK-4 was 0.1 to 10 µM each time.

With `COCCNC(=O)c1ccc(-c2cnc(N)c(-c3nc4ccc(OC)cc4[nH]3)c2)s1` [Compound A130, N-(2-methoxyethyl)-5-[6-amino-5-(6-methoxy-1H-benzimidazol-2-yl)pyridin-3-yl]thiophene-2-carboxamide], the IC50 against IRAK-1 and against IRAK-4 was 0.001 to 0.1 µM throughout.

As to `COc1cc2[nH]c(-c3cc(-c4cnn(CCN5CCOCC5)c4)cnc3N)nc2cc1F` [Compound A148, 3-(5-Fluoro-6-methoxy-1H-benzimidazol-2-yl)-5-[1-(2-morpholin-4-ylethyl)-1H-pyrazol-4-yl]pyridin-2-ylamine], the values for the IC50 against PDK1 [1], against IRAK-1 and on IRAK-4 were 0.1 to 10 µM, 0.1 to 10 µM and 0.001 to 0.1 µM, respectively.
